Measurements taken from ChEMBL document CHEMBL5325509, “Pyrrolidinedione-thiazolidinone hybrid molecules with potent cytotoxic effect in squamous cell carcinoma SCC-15 cells” (Bioorg Med Chem, 2023).
Calls of active or inactive are those of the source. The calls are words filed in the database; no cut-off is given here.

Columns and labels:
[1] = test system: Leukemic tumor cell line; test: Cytotoxicity against human Leukemic tumor cell line assessed as inhibition of cell growth measured at 72 hrs; type: functional, cell-based
[2] = test system: Breast carcinoma cell; test: Cytotoxicity against human Breast carcinoma cell assessed as inhibition of cell growth measured at 72 hrs; type: functional, cell-based
[3] = Cytotoxicity against human Cervical carcinoma cell assessed as inhibition of cell growth measured at 72 hrs; type: functional, cell-based
[4] = test system: Colon carcinoma cell; test: Cytotoxicity against human Colon carcinoma cell assessed as inhibition of cell growth measured at 72 hrs; type: functional, cell-based
[5] = test system: Lung cancer cell line; test: Cytotoxicity against human Lung cancer cell line assessed as inhibition of cell growth measured at 72 hrs; type: functional, cell-based
[6] = test system: Glioblastoma cell line; test: Cytotoxicity against human Glioblastoma cell line assessed as inhibition of cell growth measured at 72 hrs; type: functional, cell-based
[7] = test system: SCC-15; test: Cytotoxicity against human SCC-15 cells assessed as LDH release incubated for 24 hrs; type: functional, cell-based; settings: SCC-15, 24 h
[8] = test system: SCC-15; test: Cytotoxicity against human SCC-15 cells assessed as LDH release incubated for 48 hrs; type: functional, cell-based; settings: SCC-15, 48 h
[9] = test system: SCC-15; test: Cytotoxicity against human SCC-15 cells assessed as LDH release at 10 uM incubated for 24 hrs relative to control; type: functional
[10] = test system: SCC-15; test: Cytotoxicity against human SCC-15 cells assessed as LDH release at 50 uM incubated for 24 hrs relative to control; type: functional
[11] = test system: SCC-15; test: Cytotoxicity against human SCC-15 cells assessed as LDH release at 100 uM incubated for 24 hrs relative to control; type: functional
[12] = test system: SCC-15; test: Cytotoxicity against human SCC-15 cells assessed as LDH release at 50 uM incubated for 48 hrs relative to control; type: functional
[13] = test system: SCC-15; test: Cytotoxicity against human SCC-15 cells assessed as LDH release at 100 uM incubated for 48 hrs relative to control; type: functional
[14] = test system: SCC-15; test: Cytotoxicity against human SCC-15 cells assessed as decrease in cellular metabolic activity incubated for 24 hrs by resazurin reduction assay; type: functional, cell-based; settings: SCC-15, 24 h
[15] = test system: SCC-15; test: Cytotoxicity against human SCC-15 cells assessed as decrease in cellular metabolic activity incubated for 48 hrs by resazurin reduction assay; type: functional, cell-based; settings: SCC-15, 48 h
[16] = test system: SCC-15; test: Cytotoxicity against human SCC-15 cells assessed as decrease in cellular metabolic activity at 10 uM incubated for 24 hrs by resazurin reduction assay relative to control; type: functional; set-up: scale not given: the % may be the effect or the level left
[17] = test system: SCC-15; test: Cytotoxicity against human SCC-15 cells assessed as decrease in cellular metabolic activity at 50 uM incubated for 24 hrs by resazurin reduction assay relative to control; type: functional; set-up: scale not given: the % may be the effect or the level left
[18] = test system: SCC-15; test: Cytotoxicity against human SCC-15 cells assessed as decrease in cellular metabolic activity at 100 uM incubated for 24 hrs by resazurin reduction assay relative to control; type: functional; set-up: scale not given: the % may be the effect or the level left
[19] = test system: SCC-15; test: Cytotoxicity against human SCC-15 cells assessed as decrease in cellular metabolic activity at 10 uM incubated for 48 hrs by resazurin reduction assay relative to control; type: functional; set-up: scale not given: the % may be the effect or the level left
[20] = test system: SCC-15; test: Cytotoxicity against human SCC-15 cells assessed as decrease in cellular metabolic activity at 50 uM incubated for 48 hrs by resazurin reduction assay relative to control; type: functional; set-up: scale not given: the % may be the effect or the level left
[21] = test system: SCC-15; test: Cytotoxicity against human SCC-15 cells assessed as decrease in cellular metabolic activity at 100 uM incubated for 48 hrs by resazurin reduction assay relative to control; type: functional; set-up: scale not given: the % may be the effect or the level left
[22] = test system: HaCaT; test: Cytotoxicity against human HaCaT cells assessed reduction in cellular metabolic activity at 0.1 to 100 uM incubated for 24 to 72 hrs by MTT assay; type: toxicity, cell-based; settings: dose lower 0.1 µM, time lower 24 hrs, dose upper 100 µM, time upper 72 hrs
[23] = test system: BALB/3T3; test: Cytotoxicity against mouse BALB/3T3 cells assessed reduction in cellular metabolic activity at 0.1 to 100 uM incubated for 24 to 72 hrs by MTT assay; type: toxicity, cell-based; settings: balb/3t3, 100 µM, dose lower 0.1 µM, time lower 24 hrs, dose upper 100 µM, time upper 72 hrs
[24] = Cytotoxicity against human HaCaT cells assessed reduction in cellular metabolic activity incubated for 24 to 72 hrs by MTT assay; type: toxicity, cell-based
[25] = Cytotoxicity against mouse BALB/3T3 cells assessed reduction in cellular metabolic activity incubated for 24 to 72 hrs by MTT assay; type: toxicity, cell-based
[26] = Cytotoxicity against human HaCaT cells assessed reduction in cellular metabolic activity incubated for 72 hrs by MTT assay; type: toxicity, cell-based
[27] = test system: SCC-15; test: Induction of intracellular ROS generation in human SCC-15 cells at 0.001 to 10 uM incubated for 24 to 48 hrs by DCFH-DA staining based immunofluorescence analysis; type: functional, cell-based; settings: dose 0.001-10 µM, time 24-48 hrs
[28] = test system: SCC-15; test: Induction of intracellular ROS generation in human SCC-15 cells at 50 to 100 uM incubated for 24 hrs by DCFH-DA staining based immunofluorescence analysis; type: functional; settings: dose 50-100 µM
[29] = test system: SCC-15; test: Induction of intracellular ROS generation in human SCC-15 cells at 50 to 100 uM incubated for 48 hrs by DCFH-DA staining based immunofluorescence analysis; type: functional; settings: dose 50-100 µM
[30] = Upregulation of Ki67 expression in PPARgamma-silenced human SCC-15 cells at 1 uM incubated for 48 hrs Western blot analysis relative to siRNA control; type: functional
[31] = test system: SCC-15; test: Induction of intracellular ROS generation in human SCC-15 cells incubated for 24 to 48 hrs by DCFH-DA staining based immunofluorescence analysis; type: functional, cell-based; settings: dose 0.001-100 µM, time 24-48 hrs
[32] = test system: SCC-15; test: Induction of intracellular ROS generation in human SCC-15 cells at 0.001 to 100 uM by DCFH-DA staining based immunofluorescence analysis; type: functional, cell-based; settings: dose 0.001-100 µM, time 24-48 hrs, TDE = time-dependent effect
[33] = Upregulation of Caspase-3 activity in human SCC-15 cells at 100 uM measured after 24 hrs in presence of Ac-DEVD-AMC by fluorescence microplate reader analysis; type: functional
[34] = Upregulation of Caspase-3 activity in human SCC-15 cells at 100 uM measured after 48 hrs in presence of Ac-DEVD-AMC by fluorescence microplate reader analysis; type: functional
[35] = Downregulation of PPARgamma mRNA expression in human SCC-15 cells at 1 uM measured after 24 hrs by RT-PCR analysis (reference value: 79.68 %); type: functional
[36] = Downregulation of AHR mRNA expression in human SCC-15 cells at 1 uM measured after 24 hrs by RT-PCR analysis (reference value: 17.30 %); type: functional
[37] = Downregulation of NRFL2 mRNA expression in human SCC-15 cells at 1 uM measured after 24 hrs by RT-PCR analysis (reference value: 18.36 %); type: functional
[38] = Upregulation of AHR mRNA expression in PPARgamma knockdown human SCC-15 cells at 1 uM measured after 24 hrs by RT-PCR analysis; type: functional
[39] = Upregulation of NRFL2 mRNA expression in PPARgamma knockdown human SCC-15 cells at 1 uM measured after 24 hrs by RT-PCR analysis; type: functional
[40] = Downregulation of PPARgamma mRNA expression in PPARgamma-silenced human SCC-15 cells at 1 uM measured after 24 hrs by RT-PCR analysis; type: functional
[41] = Upregulation of AHR mRNA expression in PPARgamma-silenced human SCC-15 cells at 1 uM measured after 24 hrs by RT-PCR analysis; type: functional
[42] = Upregulation of AHR expression in PPARgamma-silenced human SCC-15 cells at 1 uM incubated for 48 hrs Western blot analysis relative to control; type: functional
[43] = Downregulation of AHR expression in PPARgamma-silenced human SCC-15 cells at 1 uM incubated for 48 hrs Western blot analysis relative to SiRNA control; type: functional
[44] = Upregulation of PPARgamma expression in PPARgamma-silenced human SCC-15 cells at 1 uM incubated for 48 hrs Western blot analysis relative to control; type: functional
[45] = Upregulation of PPARgamma expression in human SCC-15 cells at 1 uM incubated for 48 hrs Western blot analysis relative to control; type: functional
[46] = Upregulation of Ki67 expression in human SCC-15 cells at 1 uM incubated for 48 hrs Western blot analysis relative to control; type: functional
[47] = Downregulation of PCNA expression in PPARgamma-silenced human SCC-15 cells at 1 uM incubated for 48 hrs Western blot analysis relative to control; type: functional
[48] = Upregulation of PCNA expression in PPARgamma-silenced human SCC-15 cells at 1 uM incubated for 48 hrs Western blot analysis relative to siRNA control; type: functional

## O=C1CC(N2C(=O)/C(=C/C(Cl)=C/c3ccc([N+](=O)[O-])cc3)SC2=S)C(=O)N1c1ccc(O)cc1 (stereo not drawn)
[1]
  IC50: 1000 nM
[2]
  IC50: 1000 nM
[3]
  IC50: 1000 nM
[4]
  IC50: 1000 nM
[5]
  IC50: 1000 nM
[6]
  IC50: 1000 nM
[7]
  EC50: 24.9 µM
[8]
  EC50: 32.8 µM
[9]
  Activity: 16.8%
[10]
  Activity: 106.2%
[11]
  Activity: 115.3%
[12]
  Activity: 150.7%
[13]
  Activity: 90.92%
[14]
  IC50: 17.7 µM
[15]
  IC50: 6.72 µM
[16]
  Activity: 43.58%
[17]
  Activity: 77%
[18]
  Activity: 79.14%
[19]
  Activity: 69.88%
[20]
  Activity: 82.23%
[21]
  Activity: 83.18%
[22]
  Activity: Non-Toxic
[23]
  Activity: Non-Toxic
[24]
  IC50: > 100 µM
[25]
  IC50: > 100 µM
[26]
  IC50 at 72 h: 73.6 µM
[27]
  Activity: inactive
[28]
  Activity: 11.01%
[29]
  Activity: 23.37%
[30]
  Activity: 41.15%
[31]
  Activity: Dose-Dependent Effect
[32]
  Activity: Tde
[33]
  Activity: 74.97%
[34]
  Activity: 62.85%
[35]
  Activity: 21.32%
[36]
  Activity: 34.9%
[37]
  Activity: 13.77%
[38]
  Activity: 15.99%
[39]
  Activity: 5.73%
[40]
  Activity: 60.85%
[41]
  Activity: 33.59%
[42]
  Activity: 4.74%
[43]
  Activity: 32.59%
[44]
  Activity: 19.96%
[45]
  Activity: 18.58%
[46]
  Activity: 28.61%
[47]
  Activity: 66.68%
[48]
  Activity: 23.6%
